According to PubChem BioAssay AID1259407 (Chemical Carcinogenesis Research Information System (CCRIS), 2018):
Calls of active or inactive are those of the source. The rule behind the calls is not given here.

System: CCRIS mutagenicity, Ames/micronucleus/aberration tests
Assay: CCRIS mutagenicity studies

C#C[C@]1(O)CC[C@H]2[C@@H]3CCc4cc(O)ccc4[C@H]3CC[C@@]21C
mutagenic call (End Point: IN VITRO CHROMOSOMAL ABERRATIONS, Test System: CHINESE HAMSTER CELL DON (22;XY), Metabolic Activation: NONE): active; positive (ploidy changes)
mutagenic call (End Point: IN VITRO CHROMOSOMAL ABERRATIONS, Test System: CHO CELLS, Metabolic Activation: NONE): active; positive
mutagenic call (End Point: IN VITRO CHROMOSOMAL ABERRATIONS, Test System: HUMAN (FEMALE) PERIPHERAL BLOOD LYMPHOCYTES, Metabolic Activation: NONE): inactive; negative
mutagenic call (End Point: IN VITRO CHROMOSOMAL ABERRATIONS, Test System: HUMAN (FEMALE) PERIPHERAL BLOOD LYMPHOCYTES, Metabolic Activation: RAT, LIVER, S-9, NO NADP): inactive; negative
mutagenic call (End Point: IN VITRO CHROMOSOMAL ABERRATIONS, Test System: HUMAN (FEMALE) PERIPHERAL BLOOD LYMPHOCYTES, Metabolic Activation: RAT, LIVER, S-9, WITH NADP ADDITION): active; positive (structural changes)
mutagenic call (End Point: IN VITRO CHROMOSOMAL ABERRATIONS, Test System: HUMAN PERIPHERAL LYMPHOCYTES, Metabolic Activation: NONE): inactive; negative
mutagenic call (End Point: IN VITRO CHROMOSOMAL ABERRATIONS, Test System: HUMAN PERIPHERAL LYMPHOCYTES, Metabolic Activation: RAT, LIVER, S-9, AROCLOR 1254): inactive; negative
mutagenic call (End Point: IN VIVO MICRONUCLEUS, Test System: BONE MARROW POLYCHROMATIC ERYTHROCYTES, Species: MOUSE, Strain/Sex: NMRI/FEMALE, Route: INTRAGASTRIC): inactive; negative
mutagenic call (End Point: IN VIVO MICRONUCLEUS, Test System: BONE MARROW POLYCHROMATIC ERYTHROCYTES, Species: MOUSE, Strain/Sex: SWISS ALBINO, Route: ORAL (GAVAGE)): inactive; negative
mutagenic call (Test System: AMES SALMONELLA TYPHIMURIUM, Strain/Indicator: TA97, Metabolic Activation: HAMSTER, LIVER, S-9, AROCLOR 1254 (10 OR 30%), Method: PREINCUBATION): inactive; negative
mutagenic call (Test System: AMES SALMONELLA TYPHIMURIUM, Strain/Indicator: TA97, Metabolic Activation: NONE, Method: PREINCUBATION): inactive; negative
mutagenic call (Test System: AMES SALMONELLA TYPHIMURIUM, Strain/Indicator: TA97, Metabolic Activation: RAT, LIVER, S-9, AROCLOR 1254 (10%), Method: PREINCUBATION): inactive; negative
mutagenic call (Test System: AMES SALMONELLA TYPHIMURIUM, Strain/Indicator: TA97, Metabolic Activation: RAT, LIVER, S-9, AROCLOR 1254 (30%), Method: PREINCUBATION): inactive; negative
mutagenic call (Test System: AMES SALMONELLA TYPHIMURIUM, Strain/Indicator: TA98, Metabolic Activation: HAMSTER, LIVER, S-9, AROCLOR 1254 (10 OR 30%), Method: PREINCUBATION): inactive; negative
mutagenic call (Test System: AMES SALMONELLA TYPHIMURIUM, Strain/Indicator: TA98, Metabolic Activation: MOUSE, LIVER, S-9, Method: STANDARD PLATE): inactive; negative
mutagenic call (Test System: AMES SALMONELLA TYPHIMURIUM, Strain/Indicator: TA98, Metabolic Activation: NONE): inactive; negative
mutagenic call (Test System: AMES SALMONELLA TYPHIMURIUM, Strain/Indicator: TA98, Metabolic Activation: NONE, Method: PREINCUBATION): inactive; negative
mutagenic call (Test System: AMES SALMONELLA TYPHIMURIUM, Strain/Indicator: TA98, Metabolic Activation: NONE, Method: STANDARD PLATE): inactive; negative
mutagenic call (Test System: AMES SALMONELLA TYPHIMURIUM, Strain/Indicator: TA98, Metabolic Activation: RAT, LIVER, S-9, AROCLOR 1254 (10%), Method: PREINCUBATION): inactive; negative
mutagenic call (Test System: AMES SALMONELLA TYPHIMURIUM, Strain/Indicator: TA98, Metabolic Activation: RAT, LIVER, S-9, AROCLOR 1254 (30%), Method: PREINCUBATION): inactive; negative
mutagenic call (Test System: AMES SALMONELLA TYPHIMURIUM, Strain/Indicator: TA98, Metabolic Activation: RAT, LIVER, S-9, AROCLOR 1254, Method: STANDARD PLATE): inactive; negative
mutagenic call (Test System: AMES SALMONELLA TYPHIMURIUM, Strain/Indicator: TA98, Metabolic Activation: S-9): inactive; negative
mutagenic call (Test System: AMES SALMONELLA TYPHIMURIUM, Strain/Indicator: TA100, Metabolic Activation: HAMSTER, LIVER, S-9, AROCLOR 1254 (10 OR 30%), Method: PREINCUBATION): inactive; negative
mutagenic call (Test System: AMES SALMONELLA TYPHIMURIUM, Strain/Indicator: TA100, Metabolic Activation: MOUSE, LIVER, S-9, Method: STANDARD PLATE): inactive; negative
mutagenic call (Test System: AMES SALMONELLA TYPHIMURIUM, Strain/Indicator: TA100, Metabolic Activation: NONE): inactive; negative
mutagenic call (Test System: AMES SALMONELLA TYPHIMURIUM, Strain/Indicator: TA100, Metabolic Activation: NONE, Method: PREINCUBATION): inactive; negative
mutagenic call (Test System: AMES SALMONELLA TYPHIMURIUM, Strain/Indicator: TA100, Metabolic Activation: NONE, Method: STANDARD PLATE): inactive; negative
mutagenic call (Test System: AMES SALMONELLA TYPHIMURIUM, Strain/Indicator: TA100, Metabolic Activation: RAT, LIVER, S-9, AROCLOR 1254 (10%), Method: PREINCUBATION): inactive; negative
mutagenic call (Test System: AMES SALMONELLA TYPHIMURIUM, Strain/Indicator: TA100, Metabolic Activation: RAT, LIVER, S-9, AROCLOR 1254 (30%), Method: PREINCUBATION): inactive; negative
mutagenic call (Test System: AMES SALMONELLA TYPHIMURIUM, Strain/Indicator: TA100, Metabolic Activation: RAT, LIVER, S-9, AROCLOR 1254, Method: STANDARD PLATE): inactive; negative
mutagenic call (Test System: AMES SALMONELLA TYPHIMURIUM, Strain/Indicator: TA100, Metabolic Activation: S-9): inactive; negative
mutagenic call (Test System: AMES SALMONELLA TYPHIMURIUM, Strain/Indicator: TA1535, Metabolic Activation: HAMSTER, LIVER, S-9, AROCLOR 1254 (10 OR 30%), Method: PREINCUBATION): inactive; negative
mutagenic call (Test System: AMES SALMONELLA TYPHIMURIUM, Strain/Indicator: TA1535, Metabolic Activation: MOUSE, LIVER, S-9, Method: STANDARD PLATE): inactive; negative
mutagenic call (Test System: AMES SALMONELLA TYPHIMURIUM, Strain/Indicator: TA1535, Metabolic Activation: NONE): inactive; negative
mutagenic call (Test System: AMES SALMONELLA TYPHIMURIUM, Strain/Indicator: TA1535, Metabolic Activation: NONE, Method: PREINCUBATION): inactive; negative
mutagenic call (Test System: AMES SALMONELLA TYPHIMURIUM, Strain/Indicator: TA1535, Metabolic Activation: NONE, Method: STANDARD PLATE): inactive; negative
mutagenic call (Test System: AMES SALMONELLA TYPHIMURIUM, Strain/Indicator: TA1535, Metabolic Activation: RAT, LIVER, S-9, AROCLOR 1254 (10%), Method: PREINCUBATION): inactive; negative
mutagenic call (Test System: AMES SALMONELLA TYPHIMURIUM, Strain/Indicator: TA1535, Metabolic Activation: RAT, LIVER, S-9, AROCLOR 1254 (30%), Method: PREINCUBATION): inactive; negative
mutagenic call (Test System: AMES SALMONELLA TYPHIMURIUM, Strain/Indicator: TA1535, Metabolic Activation: RAT, LIVER, S-9, AROCLOR 1254, Method: STANDARD PLATE): inactive; negative
mutagenic call (Test System: AMES SALMONELLA TYPHIMURIUM, Strain/Indicator: TA1535, Metabolic Activation: S-9): inactive; negative
mutagenic call (Test System: AMES SALMONELLA TYPHIMURIUM, Strain/Indicator: TA1537, Metabolic Activation: MOUSE, LIVER, S-9, Method: STANDARD PLATE): inactive; negative
mutagenic call (Test System: AMES SALMONELLA TYPHIMURIUM, Strain/Indicator: TA1537, Metabolic Activation: NONE): inactive; negative
mutagenic call (Test System: AMES SALMONELLA TYPHIMURIUM, Strain/Indicator: TA1537, Metabolic Activation: NONE, Method: STANDARD PLATE): inactive; negative
mutagenic call (Test System: AMES SALMONELLA TYPHIMURIUM, Strain/Indicator: TA1537, Metabolic Activation: RAT, LIVER, S-9, AROCLOR 1254, Method: STANDARD PLATE): inactive; negative
mutagenic call (Test System: AMES SALMONELLA TYPHIMURIUM, Strain/Indicator: TA1537, Metabolic Activation: S-9): inactive; negative
mutagenic call (Test System: AMES SALMONELLA TYPHIMURIUM, Strain/Indicator: TA1538, Metabolic Activation: MOUSE, LIVER, S-9, Method: STANDARD PLATE): inactive; negative
mutagenic call (Test System: AMES SALMONELLA TYPHIMURIUM, Strain/Indicator: TA1538, Metabolic Activation: NONE, Method: STANDARD PLATE): inactive; negative
mutagenic call (Test System: AMES SALMONELLA TYPHIMURIUM, Strain/Indicator: TA1538, Metabolic Activation: RAT, LIVER, S-9, AROCLOR 1254, Method: STANDARD PLATE): inactive; negative
mutagenic call (Test System: E. COLI, Strain/Indicator: WP2 UVRA, Metabolic Activation: HAMSTER, LIVER, S-9, AROCLOR 1254, Method: STANDARD PLATE): inactive; negative
mutagenic call (Test System: E. COLI, Strain/Indicator: WP2 UVRA, Metabolic Activation: HAMSTER, LIVER, S-9, Method: STANDARD PLATE): inactive; negative
mutagenic call (Test System: E. COLI, Strain/Indicator: WP2 UVRA, Metabolic Activation: MOUSE, LIVER, S-9, AROCLOR 1254, Method: STANDARD PLATE): inactive; negative
mutagenic call (Test System: E. COLI, Strain/Indicator: WP2 UVRA, Metabolic Activation: MOUSE, LIVER, S-9, Method: STANDARD PLATE): inactive; negative
mutagenic call (Test System: E. COLI, Strain/Indicator: WP2 UVRA, Metabolic Activation: NONE): inactive; negative
mutagenic call (Test System: E. COLI, Strain/Indicator: WP2 UVRA, Metabolic Activation: NONE, Method: STANDARD PLATE): inactive; negative
mutagenic call (Test System: E. COLI, Strain/Indicator: WP2 UVRA, Metabolic Activation: RAT, LIVER, S-9, AROCLOR 1254, Method: STANDARD PLATE): inactive; negative
mutagenic call (Test System: E. COLI, Strain/Indicator: WP2 UVRA, Metabolic Activation: RAT, LIVER, S-9, Method: STANDARD PLATE): inactive; negative
mutagenic call (Test System: E. COLI, Strain/Indicator: WP2 UVRA, Metabolic Activation: S-9): inactive; negative
